From PubChem BioAssay AID1259407 (Chemical Carcinogenesis Research Information System (CCRIS), 2018)
Calls of active or inactive are those of the source. No rule for the calls is given here.

System: CCRIS mutagenicity, Ames/micronucleus/aberration tests
Experiment: CCRIS mutagenicity studies
Conditions: Test System: AMES SALMONELLA TYPHIMURIUM
[1] = Strain/Indicator: TA98, Metabolic Activation: RAT, LIVER, S-9, AROCLOR 1254, Method: PREINCUBATION
[2] = Strain/Indicator: TA100, Metabolic Activation: NONE, Method: STANDARD PLATE
[3] = Strain/Indicator: TA100, Metabolic Activation: RAT, LIVER, S-9, AROCLOR 1254, Method: PREINCUBATION

Measured: mutagenic call

O=NN(CC(=O)O)CC1(O)OCC(O)C(O)C1O (stereo not given)
inactive: Strain/Indicator: TA98, Metabolic Activation: NONE, Method: STANDARD PLATE inactive; negative | [1] inactive; negative | Strain/Indicator: TA98, Metabolic Activation: RAT, LIVER, S-9, AROCLOR 1254, Method: STANDARD PLATE inactive; negative | [2] inactive; negative | [3] inactive; negative | Strain/Indicator: TA100, Metabolic Activation: RAT, LIVER, S-9, AROCLOR 1254, Method: STANDARD PLATE inactive; negative | Strain/Indicator: TA1535, Metabolic Activation: NONE, Method: STANDARD PLATE inactive; negative | Strain/Indicator: TA1535, Metabolic Activation: RAT, LIVER, S-9, AROCLOR 1254, Method: STANDARD PLATE inactive; negative | Strain/Indicator: TA1537, Metabolic Activation: NONE, Method: STANDARD PLATE inactive; negative | Strain/Indicator: TA1537, Metabolic Activation: RAT, LIVER, S-9, AROCLOR 1254, Method: STANDARD PLATE inactive; negative | Strain/Indicator: TA1538, Metabolic Activation: NONE, Method: STANDARD PLATE inactive; negative | Strain/Indicator: TA1538, Metabolic Activation: RAT, LIVER, S-9, AROCLOR 1254, Method: STANDARD PLATE inactive; negative

Cc1ccc(CCl)cc1
inactive: [2] inactive; negative

Nc1nc2ccc(Cl)cc2[nH]1
inactive: [1] inactive; negative | [3] inactive; negative
